# From patent publication US20050059719A1 (priority 2003, published 2005)
# Conditions: pH 5.5
# Method: The fraction of the dose precipitating in the form of free base during dissolution is dependent on experimental factors such as stirring speed, which determines mixing kinetics of the highly supersaturated microenvironment solution into the bulk of the dissolution medium.
# The dissolution studies were conducted using USP apparatus 2 in acetate buffer, pH 5.5 and 37° C.
# The pH of the dissolution medium remained substantially constant at ˜5.5 until the end of the test.
compound,measurement,value
CN(C)Cc1nccn1-c1ccc(NC(=O)c2cc(C(F)(F)F)nn2-c2ccc3onc(N)c3c2)c(F)c1.Cl [Factor Xa inhibitor],concentration in the dissolution medium relative to saturation solubility at this pH,~10 fold
